Experimental data as given in ChEMBL document CHEMBL2074523, “Hepatic uptake of cholecystokinin octapeptide by organic anion-transporting polypeptides OATP4 and OATP8 of rat and human liver” (Gastroenterology, 2001).

T1: Solute carrier organic anion transporter family member 1B3 (OATP1B3) (Homo sapiens, UniProt Q9NPD5)
T1 sequence (Q9NPD5 whole entry): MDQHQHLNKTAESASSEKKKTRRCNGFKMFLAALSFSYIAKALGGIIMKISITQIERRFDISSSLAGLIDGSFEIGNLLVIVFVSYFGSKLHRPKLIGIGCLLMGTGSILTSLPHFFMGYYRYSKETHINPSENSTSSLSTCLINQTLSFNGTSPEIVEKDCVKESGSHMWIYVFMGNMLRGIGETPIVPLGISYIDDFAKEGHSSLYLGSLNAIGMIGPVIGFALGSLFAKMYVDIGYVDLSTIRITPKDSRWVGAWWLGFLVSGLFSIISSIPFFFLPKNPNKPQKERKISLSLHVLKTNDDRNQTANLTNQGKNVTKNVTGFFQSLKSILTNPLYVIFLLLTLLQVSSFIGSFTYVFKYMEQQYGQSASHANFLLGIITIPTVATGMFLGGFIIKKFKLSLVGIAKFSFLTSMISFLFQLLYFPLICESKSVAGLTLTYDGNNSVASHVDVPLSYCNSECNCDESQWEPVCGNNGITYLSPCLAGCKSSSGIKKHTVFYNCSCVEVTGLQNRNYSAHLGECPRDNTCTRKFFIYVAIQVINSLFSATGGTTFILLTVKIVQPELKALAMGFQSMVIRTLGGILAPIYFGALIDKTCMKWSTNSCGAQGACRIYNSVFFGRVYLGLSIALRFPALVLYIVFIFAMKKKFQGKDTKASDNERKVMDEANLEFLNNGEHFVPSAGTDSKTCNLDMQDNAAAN

B1: Solute carrier organic anion transporter family member 1B2 (Rattus norvegicus) (protein)
chain: MDHTQQSRKAAEAQPSRSKQTRFCDGFKLFLAALSFSYICKALGGVVMKSSITQIERRFDIPSSISGLIDGGFEIGNLLVIVFVSYFGSKLHRPKLIGIGCFIMGIGSILTALPHFFMGYYKYAKENDIGSLGNSTLTCFINQMTSPTGPSPEIVEKGCEKGLKSHMWIYVLMGNMLRGIGETPIVPLGISYLDDFAKEGHTSMHLGTLHTIAMIGPILGFIMSSVFAKIYVDVGYVDLNSVRITPNDARWVGAWWLSFIVNGLLCITSSIPFFFLPKIPKRSQEERKNSVSLHAPKTDEEKKHMTNLTKQEEQDPSNMTGFLRSLRSILTNEIYVIFLILTLLQVSGFIGSFTYLFKFIEQQFGRTASQANFLLGIITIPTMATAMFLGGYIVKKFKLTSVGIAKFVFFTSSVAYAFQFLYFPLLCENKPFAGLTLTYDGMNPVDSHIDVPLSYCNSDCSCDKNQWEPICGENGVTYISPCLAGCKSFRGDKKPNNTEFYDCSCISNSGNNSAHLGECPRYKCKTNYYFYIILQVTVSFFTAMGSPSLILILMKSVQPELKSLAMGFHSLIIRALGGILAPIYYGAFIDRTCIKWSVTSCGKRGACRLYNSRLFGFSYLGLNLALKTPPLFLYVVLIYFTKRKYKRNDNKTLENGRQFTDEGNPDSVNKNGYYCVPYDEQSNETPL

How the values were obtained:
[1] = target: T1, Solute carrier organic anion transporter family member 1B3 (OATP1B3); test: (§1) TP_TRANSPORTER: uptake in Xenopus laevis oocytes; details: Xenopus laevis oocytes expressing OATP1B3 (SLCO1B3)
[2] = substrate: CSCC[C@H](NC(=O)[C@H](Cc1ccc(OS(=O)(=O)O)cc1)NC(=O)[C@@H](N)CC(=O)O)C(=O)NCC(=O)N[C@@H](Cc1c[nH]c2ccccc12)C(=O)N[C@@H](CCSC)C(=O)N[C@@H](CC(=O)O)C(=O)N[C@@H](Cc1ccccc1)C(N)=O; test: as §1; type: functional, cell-based, Oocyte

| Molecule | Km [1] | Km [2] |
| --- | --- | --- |
| CSCC[C@H](NC(=O)[C@H](Cc1ccc(OS(=O)(=O)O)cc1)NC(=O)[C@@H](N)CC(=O)O)C(=O)NCC(=O)N[C@@H](Cc1c[nH]c2ccccc12)C(=O)N[C@@H](CCSC)C(=O)N[C@@H](CC(=O)O)C(=O)N[C@@H](Cc1ccccc1)C(N)=O [SINCALIDE] | 11.1 µM | – |
| B1 | – | 14.9 µM |
